Measurements reported in publication PMC4797285 (Nucleic Acids Research, 2016).

How the values were obtained:
[1] = tested on: ribosome on the mRNA (PURExpress in vitro protein synthesis kit); test: Toe-printing assay; format: biochemical; conditions: for Position of ribosome stalling in toe-print: 100 μM thiostrepton, 50 μM clindamycin
[2] = tested on: ribosomes translating 2XErmBL mRNA (RTS 100 E. coli HY Kit); test: Disome formation assay; format: biochemical, Escherichia coli; conditions: 20 μM erythromycin, positive control

Molecule	Position of ribosome stalling in toe-print [1]	other results
CCC[C@@H]1C[C@@H](C(=O)N[C@@H]([C@H]2O[C@H](SC)[C@H](O)[C@@H](O)[C@H]2O)[C@H](C)Cl)N(C)C1 [clindamycin]	ribosomes accumulated at the AUG codon	–
CC[C@H]1OC(=O)[C@H](C)[C@@H](O[C@H]2C[C@@](C)(OC)[C@@H](O)[C@H](C)O2)[C@H](C)[C@@H](O[C@@H]2O[C@H](C)C[C@H](N(C)C)[C@H]2O)[C@](C)(O)C[C@@H](C)C(=O)[C@H](C)[C@@H](O)[C@]1(C)O [erythromycin]	–	Disome formation (translation arrest) [2]: generating the expected disome peaks
C=C(NC(=O)C(=C)NC(=O)c1csc(C2=N[C@@H]3c4csc(n4)[C@H]4NC(=O)c5csc(n5)[C@H]([C@](C)(O)[C@@H](C)O)NC(=O)[C@H]5CSC(=N5)/C(=C/C)NC(=O)[C@H]([C@@H](C)O)NC(=O)c5csc(n5)[C@]3(CC2)NC(=O)[C@H](C)NC(=O)C(=C)NC(=O)[C@H](C)NC(=O)[C@H]([C@@H](C)CC)N[C@@H]2C=Cc3c([C@H](C)O)cc(nc3[C@H]2O)C(=O)O[C@@H]4C)n1)C(N)=O [thiostrepton]	ribosomes accumulated at the AUG codon	–
RRIRPRPPRLPRPRPR [Bac7(1–16)]	–	Toeprint for ribosomes stalled during initiation ([1]; 100 μM peptide, signal for full-length mRNA became stronger, similar to edeine): became weaker
